Results taken from patent US12208080B2, “Compositions and methods for modulation of extracellular vesicle release and treatment of neurological disorders” (GEORGE MASON RESEARCH FOUNDATION, INC., priority 2018, dated 2025).

Columns and labels:
[1] = test system: HIV-1 infected primary macrophages; assay: RT-qPCR of EV-associated viral RNA from HIV-1 infected primary macrophages; format: cell-based; conditions: 1, 5, 10 uM
Experimental: FIGS. 11A-11B are graphs showing CBD lowers viral RNAs in EVs released from HIV-1 infected primary macrophages. Primary PBMCs were purchased (Precision For Medicine, Frederick, Md.) and cultured in vitro first with PMA/GM-CSF for 3 days to obtain macrophages, and were then infected with HIV-1 89.6 strain (MOI.1.0) for 12 days. The macrophages were treated with PMA and GM-CSF during the infection period (added every 3 days into the fresh media). On day 12, all cells were treated with cART (4 antivirals) and kept in culture for another 3 days. On day 15, media was removed and CBD was added for 5 days (1, 5, 10 μM; at 0 and 48 hours). Supernatants were then isolated and exosomes were enriched using NT80/82 beads overnight at 4° C. […]
To examine whether the same trend could be observed in a primary cell model, three independent HIV-1 infected primary macrophage cell cultures were treated with a titration of CBD (1, 5, and 10 uM). EVs were enriched from the extracellular supernatant using NT80/82 beads and analyzed for HIV-1 TAR and env (FIG. 11). […] To apply these findings to in vivo HIV-1 infection, total EVs were enriched from plasma samples from 15 individuals; 5 healthy donors, 5 HIV-1 positive donors, and 5 HIV-1 positive donors who used Cannabis, were trapped using NT80/82 particles and analyzed via Western blot for the presence of HIV-1 Nef protein.

[2] = test system: autophagy proteins (p62, LC3, ATG12-ATG5, ATG12, Beclin-1) in U1 cells; assay: Autophagy protein profile, CBD versus autophagy drugs, in U1 cells and their EVs (Western blot); format: cell-based; conditions: 5 days, Rapamycin 50 nM, INK128 50 nM
Experimental: FIGS. 18A-18B are gels showing CBD promotes autophagy turnover, resulting in a decrease in extracellular autophagosomal secretion. A) U1 cells (1×10^6) were treated±CBD (10 μM) for the following incubation periods: 0, 6, 24, and 48 hours. Cells were pelleted and lysed, exosomes from supernatants were enriched with NT80/82 beads overnight at 4° C. Samples were run through SDS-PAGE and western blotted for autophagy proteins (p62 and LC3), and Actin. B) U1 cells (1×10^6) were treated±10 μM CBD (every day), Rapamycin (50 nM), INK128 (50 nM), Bafilomycin A1 (50 nM), SB 203580 (20 μM), Wortmannin (2 nM) for a 5-day incubation period. Cells were pelleted and lysed, exosomes from supernatants were enriched using NT80/82 beads overnight at 4° C. Samples were run through SDS-PAGE and western blotted for autophagy proteins (p62, LC3, ATG12-ATG5, ATG12, Beclin-1), and Actin.
FIGS. 21A-21K are graphs showing normalized densitometry analysis of CBD and autophagy drug treatment on HIV-1 infected monocytes. Intracellular (A) p62, (B) LC3 I, (C) LC3 II, (D) ATG12-ATG5 complex, (E) ATG12, and (F) Beclin-1, and extracellular (G) p62, (H) LC3 I, (I) LC3 II, (J) ATG12-ATG5 complex, and (K) Beclin-1 densitometry counts were calculated from the Western blot data in FIG. 5B, normalized to respective intracellular and extracellular Actin levels, and plotted.
To determine the specific points at which CBD inhibits intracellular and extracellular autophagosome formation and secretion, we compared CBD treatment of U1 monocytes with known inhibitors of different points in the autophagy pathway. Cell viability was assessed among a panel of titrated autophagy drugs and the least toxic concentration per drug was utilized (FIG. 20). We treated U1 cells with CBD (10 μM) every day, Rapamycin (50 nM), INK128 (50 nM), Bafilomycin A1 (50 nM), SB 203580 (20 μM), or Wortmannin (2 nM) for 5 days. Our rationale for using these drugs was that they regulate different steps of autophagy including nucleation inhibition by inhibiting MTOR activity (Rapamycin, INK128) or by inhibiting pre-autophagosomal VPS34 complex activity (Wortmannin, SB 203580), and autophagosome-lysosome fusion inhibition (Bafilomycin A1). Therefore, a side-by-side comparison to CBD would potentially allow for a better definition of which step of autophagosome formation is primarily regulated by CBD. U1 cells were treated with the autophagy regulators and harvested along with their corresponding supernatants for further analysis using Western blot against p62, LC3, ATG12-ATG5 complex, free ATG12, Beclin-1, and Actin. Results in FIG. 18B (intracellular proteins, top panel) show autophagy protein profiles associated with the various autophagy regulators. […] The corresponding supernatants were enriched for EVs and also analyzed for the presence of autophagy proteins.

[3] = CBD 10 μM every day, FIG. 18B top panel
[4] = CBD 10 μM, Bafilomycin A1 50 nM, SB 203580 20 μM, Wortmannin 2 nM, lower panel

In the case of C=C(C)[C@@H]1CCC(C)=C[C@H]1c1c(O)cc(CCCCC)cc1O [CBD, 2-[1R-3-methyl-6R-(1-methylethenyl)-2-cyclohexen-1-yl]-5-pentyl-1,3-benzenediol], the “TAR RNA within EVs” value ([1]; three primary macrophage cultures, FIG. 11A) is reported as “statistically significant decrease”, the “env RNA in secreted EVs” value ([1]; two out of three infected primary macrophages, FIG. 11B) is reported as “statistically significant decreasing trend” and the “intracellular ATG12-ATG5” value [2, 3] is reported as “low levels”. The “intracellular Beclin-1” value [2, 3] was “high levels”, the “intracellular LC3 I” value [2, 3] was “low levels” and the “EV-associated LC3 I” value [2, 4] was “reduction”. The “EV-associated p62” value [2, 4] was “reduction”.
